According to ChEMBL document CHEMBL1201862, “PubChem BioAssay data set” (2004):
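Interpolation was linear, between the two tested concentrations surrounding the appropriate level; five concentrations were tested over 48 hours in 96-well plates. GI50 = concentration required for 50% inhibition of growth.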 Activity calls are given as the source filed them. Rule as the data show it: active = GI50 up to about 1.1 µM and inactive = higher.

Tests used:
Assay in all cases: NCI-60 cell line screen, 48 h
MDA-MB-435 = test system: MDA-MB-435
CCRF-CEM = test system: CCRF-CEM
SF-268 = test system: SF-268
SK-MEL-28 = test system: SK-MEL-28
U-251 = test system: U-251
LOX IMVI = test system: LOX IMVI
A498 = test system: A498
DU-145 = test system: DU-145
MCF7 = test system: MCF7
MOLT-4 = test system: MOLT-4
HCT-15 = test system: HCT-15
OVCAR-8 = test system: OVCAR-8
M14 = test system: M14
KM12 = test system: KM12
SK-OV-3 = test system: SK-OV-3
Hs-578T = test system: Hs-578T
SN12C = test system: SN12C
EKVX = test system: EKVX
BT-549 = test system: BT-549

Structure (SMILES) | GI50 (MDA-MB-435) | GI50 (CCRF-CEM) | GI50 (SF-268) | GI50 (SK-MEL-28) | GI50 (U-251) | GI50 (LOX IMVI) | GI50 (A498) | GI50 (DU-145) | GI50 (MCF7) | GI50 (MOLT-4) | GI50 (HCT-15) | GI50 (OVCAR-8) | GI50 (M14) | GI50 (KM12) | GI50 (SK-OV-3) | GI50 (Hs-578T) | GI50 (SN12C) | GI50 (EKVX) | GI50 (BT-549)
COC(=O)[C@@H]1CN(C(=O)CCc2ccccc2)C(=O)N1C(=O)OCc1ccccc1 | > 100 µM (inactive) | > 100 µM (inactive) | 40 µM (inactive) | > 100 µM (inactive) | > 100 µM (inactive) | > 100 µM (inactive) | > 100 µM (inactive) | > 100 µM (inactive) | > 100 µM (inactive) | > 100 µM (inactive) | > 100 µM | > 100 µM (inactive) | > 100 µM (inactive) | > 100 µM (inactive) | > 100 µM (inactive) | 57.1 µM (inactive) | > 100 µM (inactive) | > 100 µM (inactive) | 
O=NN1CCCS1(=O)=O |  | > 100 µM (inactive) | > 100 µM (inactive) | > 100 µM (inactive) | > 100 µM (inactive) | > 100 µM (inactive) | > 100 µM (inactive) | > 100 µM (inactive) | > 100 µM (inactive) | > 100 µM (inactive) | > 100 µM | > 100 µM (inactive) | > 100 µM (inactive) | > 100 µM (inactive) | > 100 µM (inactive) | > 100 µM (inactive) | > 100 µM (inactive) | > 100 µM (inactive) | > 100 µM (inactive)
CO/N=C(\C(=O)O/C(=N/C1CCCCC1)NC1CCCCC1)c1csc(NC(c2ccccc2)(c2ccccc2)c2ccccc2)n1 |  | > 10 µM (inactive) | > 10 µM (inactive) | > 10 µM (inactive) | > 10 µM (inactive) | 9.46 µM (inactive) | > 10 µM (inactive) | > 10 µM (inactive) | > 10 µM (inactive) | > 10 µM (inactive) | > 10 µM | > 10 µM (inactive) | > 10 µM (inactive) | > 10 µM (inactive) | > 10 µM (inactive) | > 10 µM (inactive) | > 10 µM (inactive) | > 10 µM (inactive) | > 10 µM (inactive)
CC(C)CNC(=O)CCc1cccc2c1oc1c(CCN)cccc12 | 12.2 µM (inactive) | 3.9 µM (inactive) | 15 µM (inactive) | 11.5 µM (inactive) | 5.85 µM (inactive) | 12.5 µM (inactive) | 15 µM (inactive) | 17.9 µM (inactive) | 20.6 µM (inactive) | 11.8 µM (inactive) | 24.1 µM | 18.1 µM (inactive) | 15.6 µM (inactive) | 11.9 µM (inactive) | 17 µM (inactive) |  | 17.4 µM (inactive) | 14.3 µM (inactive) | 
Cc1cc(S(=O)(=O)Nc2nc(N)nc(N(C)C)n2)c(SCC(=O)O)cc1Cl |  | > 10 µM (inactive) | > 10 µM (inactive) | > 10 µM (inactive) | > 10 µM (inactive) | > 10 µM (inactive) | > 10 µM (inactive) | > 10 µM (inactive) | > 10 µM (inactive) | > 10 µM (inactive) | > 10 µM | > 10 µM (inactive) | > 10 µM (inactive) | > 10 µM (inactive) | > 10 µM (inactive) |  | > 10 µM (inactive) | > 10 µM (inactive) | > 10 µM (inactive)
CC1C[C@]2(C)C(=S)Nc3ccccc3[C@@H]2Nc2ccccc21 (stereo partly drawn) | 14.9 µM (inactive) | 17.9 µM (inactive) | 1.11 µM (active) | 0.39 µM (active) |  | 13.4 µM (inactive) | 21.5 µM (inactive) | 4 µM (inactive) | 13 µM (inactive) | 17.5 µM (inactive) | 21.6 µM | 15.9 µM (inactive) | 17.4 µM (inactive) | 15.5 µM (inactive) |  | 35.2 µM (inactive) | 17.9 µM (inactive) | 22.3 µM (inactive) | 
N#Cc1nn(C2OC(COC(=O)c3ccccc3)C(OC(=O)c3ccccc3)C2OC(=O)c2ccccc2)c2nc[nH]c(=O)c12 (stereo not drawn) | 46.2 µM (inactive) | 18.5 µM (inactive) | 43.1 µM (inactive) | 44.1 µM (inactive) | 62.5 µM (inactive) |  | 11.4 µM (inactive) | 42.7 µM (inactive) | 93.5 µM (inactive) | 36.6 µM (inactive) | 40.1 µM | 27.8 µM (inactive) | 46.1 µM (inactive) |  | 5.57 µM (inactive) | 80.9 µM (inactive) | 77.4 µM (inactive) | 55.7 µM (inactive) | 
COC(=O)/C=C\c1ccc2c(c1)CC1(C2)Cc2ccc(/C=C/C(=O)OC)cc2C1 (stereo not drawn) | > 31.6 µM (inactive) | > 31.6 µM (inactive) | > 100 µM (inactive) | > 100 µM (inactive) | 20.7 µM (inactive) | > 31.6 µM (inactive) | > 10 µM (inactive) | > 100 µM (inactive) | 21.2 µM (inactive) | > 31.6 µM (inactive) | > 31.6 µM | 30.8 µM (inactive) | > 31.6 µM (inactive) | > 31.6 µM (inactive) | > 31.6 µM (inactive) | > 31.6 µM (inactive) | > 31.6 µM (inactive) | > 31.6 µM (inactive) | 
COc1ccc(/C=C2/SC(c3ccc(Cl)cc3)N(NC(=O)CCCCCCCCC(=O)NN3C(=O)/C(=C\c4ccc(OC)c(OC)c4)SC3c3ccc(Cl)cc3)C2=O)cc1OC (stereo not drawn) | 42 µM (inactive) |  | 50 µM (inactive) | 83 µM (inactive) | > 100 µM (inactive) |  | 24.4 µM (inactive) | > 100 µM (inactive) | > 100 µM (inactive) | 47.5 µM (inactive) | > 100 µM | 52.8 µM (inactive) | 44.1 µM (inactive) | 55.3 µM (inactive) | 31.4 µM (inactive) |  | > 100 µM (inactive) | 23.6 µM (inactive) | > 100 µM (inactive)
CC1(C)[C@@H](Cn2cnc3c(O)nc(N)nc32)CC[C@@]1(C)CO | > 100 µM (inactive) | > 100 µM (inactive) | > 100 µM (inactive) | > 100 µM (inactive) | > 100 µM (inactive) | > 100 µM (inactive) | > 100 µM (inactive) | > 100 µM (inactive) | > 100 µM (inactive) | 1.34 µM (inactive) | > 100 µM |  | > 100 µM (inactive) | > 100 µM (inactive) | > 100 µM (inactive) | > 100 µM (inactive) | > 100 µM (inactive) | > 100 µM (inactive) | 
S=C(N/N=C/c1ccccc1)NC12CC3CC(CC(C3)C1)C2 |  | 19.6 µM (inactive) | 31.9 µM (inactive) | 59.3 µM (inactive) | 53.8 µM (inactive) | 22.8 µM (inactive) | 63.4 µM (inactive) |  |  | 12.3 µM (inactive) | 47.8 µM | 60 µM (inactive) | 46.6 µM (inactive) | 36.2 µM (inactive) | > 100 µM (inactive) |  | 17.7 µM (inactive) | 71.4 µM (inactive) | 
COc1ccccc1Nc1nc(NNC(=O)Cc2ccccc2)nc(NNC(=O)c2ccncc2)n1 |  | > 10 µM (inactive) | > 10 µM (inactive) | > 10 µM (inactive) | > 10 µM (inactive) | > 10 µM (inactive) |  | > 10 µM (inactive) | > 10 µM (inactive) | > 10 µM (inactive) | > 10 µM | > 10 µM (inactive) | > 10 µM (inactive) | > 10 µM (inactive) | > 10 µM (inactive) | 9.04 µM (inactive) | > 10 µM (inactive) | > 10 µM (inactive) | > 10 µM (inactive)
COc1ccc(-c2cc(=O)c3c(O)c(OC)c(OC)c(OC)c3o2)cc1OC [5-DEMETHYLNOBILETIN] |  | > 100 µM (inactive) | 10.1 µM (inactive) | > 100 µM (inactive) | 39.7 µM (inactive) | 47.8 µM (inactive) | > 100 µM (inactive) | > 100 µM (inactive) | > 100 µM (inactive) | > 100 µM (inactive) | > 100 µM | > 100 µM (inactive) | > 100 µM (inactive) | > 100 µM (inactive) | 20.4 µM (inactive) | 12.6 µM (inactive) | > 100 µM (inactive) | > 100 µM (inactive) | 50.9 µM (inactive)
CC(=O)O[C@H]1[C@@H](N2CCN(C)CC2)C[C@H]2[C@@H]3CC=C4C[C@@H](N5CCCC5)CC[C@]4(C)[C@H]3CC[C@@]21C | 24.6 µM (inactive) | 30.4 µM (inactive) | 47.6 µM (inactive) | 28.1 µM (inactive) | 50 µM (inactive) | 17.4 µM (inactive) | > 100 µM (inactive) |  | > 100 µM (inactive) | 15.6 µM (inactive) | 26.1 µM | 85.1 µM (inactive) | 17.8 µM (inactive) | 22.4 µM (inactive) | > 100 µM (inactive) | > 100 µM (inactive) | > 100 µM (inactive) | 74.5 µM (inactive) | > 100 µM (inactive)
CC(=O)N1NC(c2ccccc2)=CC(=O)/C1=C/C(=O)c1ccccc1 | 20.2 µM (inactive) | 29.8 µM (inactive) | 29.2 µM (inactive) | > 100 µM (inactive) | > 100 µM (inactive) | 40.9 µM (inactive) | > 100 µM (inactive) | > 100 µM (inactive) | 43.7 µM (inactive) | 52.5 µM (inactive) | 70.8 µM | > 100 µM (inactive) | 82.2 µM (inactive) | 75.5 µM (inactive) | > 100 µM (inactive) | 39.9 µM (inactive) | 82.8 µM (inactive) | 49.2 µM (inactive) | 
CC1(C)O[C@H]2OC(CO)C(N=[N+]=[N-])[C@H]2O1 (stereo partly drawn) | > 100 µM (inactive) | > 100 µM (inactive) | > 100 µM (inactive) | > 100 µM (inactive) | > 100 µM (inactive) | > 100 µM (inactive) | > 100 µM (inactive) | > 100 µM (inactive) | > 100 µM (inactive) | > 100 µM (inactive) | > 100 µM | > 100 µM (inactive) | > 100 µM (inactive) | > 100 µM (inactive) |  | > 100 µM (inactive) | > 100 µM (inactive) | > 100 µM (inactive) | 
